# Measurements published in patent publication US7803804B2, “Substituted pyrazines for use in the treatment of inflammatory or allergic conditions” (Novartis AG, priority 2005, dated 2010).
# Molecular target: T1, epithelial sodium channel (ENaC) (Homo sapiens, UniProt P37088+P51168+P51170)
# T1 construct: host or cells: primary human bronchial epithelial cells (HBECs), differentiated at air-liquid interface
# T1 sequence (P37088 1-669): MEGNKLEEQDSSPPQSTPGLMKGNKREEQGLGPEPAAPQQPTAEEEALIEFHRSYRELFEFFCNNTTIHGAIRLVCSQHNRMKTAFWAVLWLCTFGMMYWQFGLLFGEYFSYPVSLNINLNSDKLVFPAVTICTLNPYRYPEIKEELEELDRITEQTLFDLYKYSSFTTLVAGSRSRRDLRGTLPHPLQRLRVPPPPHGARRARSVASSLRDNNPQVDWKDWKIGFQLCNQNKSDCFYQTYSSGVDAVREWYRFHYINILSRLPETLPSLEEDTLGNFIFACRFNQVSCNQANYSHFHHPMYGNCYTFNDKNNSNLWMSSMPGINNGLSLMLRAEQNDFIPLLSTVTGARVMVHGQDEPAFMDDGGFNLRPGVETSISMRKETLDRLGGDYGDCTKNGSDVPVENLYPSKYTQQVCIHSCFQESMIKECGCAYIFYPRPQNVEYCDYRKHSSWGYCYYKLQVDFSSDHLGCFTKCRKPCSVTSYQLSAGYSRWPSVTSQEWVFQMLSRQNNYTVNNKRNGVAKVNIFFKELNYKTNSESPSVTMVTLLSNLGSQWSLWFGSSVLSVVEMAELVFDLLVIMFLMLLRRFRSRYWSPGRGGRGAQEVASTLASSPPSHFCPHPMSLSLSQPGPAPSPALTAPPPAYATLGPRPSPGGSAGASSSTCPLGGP
# T1 sequence (P51168 1-640): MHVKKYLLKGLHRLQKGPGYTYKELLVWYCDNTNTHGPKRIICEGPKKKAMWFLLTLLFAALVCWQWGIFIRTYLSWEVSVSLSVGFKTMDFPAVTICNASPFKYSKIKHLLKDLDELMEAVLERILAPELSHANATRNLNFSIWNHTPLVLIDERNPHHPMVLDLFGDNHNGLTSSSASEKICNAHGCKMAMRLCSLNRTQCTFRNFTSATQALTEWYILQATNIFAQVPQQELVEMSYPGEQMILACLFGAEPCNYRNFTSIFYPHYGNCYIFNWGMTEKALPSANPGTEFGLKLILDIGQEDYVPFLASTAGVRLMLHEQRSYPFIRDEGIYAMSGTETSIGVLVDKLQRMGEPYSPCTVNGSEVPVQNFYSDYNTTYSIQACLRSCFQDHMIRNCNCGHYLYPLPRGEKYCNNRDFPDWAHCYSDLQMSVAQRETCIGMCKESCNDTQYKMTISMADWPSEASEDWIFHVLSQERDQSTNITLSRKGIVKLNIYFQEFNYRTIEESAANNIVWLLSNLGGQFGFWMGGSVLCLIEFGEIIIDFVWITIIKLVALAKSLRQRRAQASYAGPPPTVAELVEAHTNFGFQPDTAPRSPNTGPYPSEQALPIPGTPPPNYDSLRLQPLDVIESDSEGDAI
# T1 sequence (P51170 1-649): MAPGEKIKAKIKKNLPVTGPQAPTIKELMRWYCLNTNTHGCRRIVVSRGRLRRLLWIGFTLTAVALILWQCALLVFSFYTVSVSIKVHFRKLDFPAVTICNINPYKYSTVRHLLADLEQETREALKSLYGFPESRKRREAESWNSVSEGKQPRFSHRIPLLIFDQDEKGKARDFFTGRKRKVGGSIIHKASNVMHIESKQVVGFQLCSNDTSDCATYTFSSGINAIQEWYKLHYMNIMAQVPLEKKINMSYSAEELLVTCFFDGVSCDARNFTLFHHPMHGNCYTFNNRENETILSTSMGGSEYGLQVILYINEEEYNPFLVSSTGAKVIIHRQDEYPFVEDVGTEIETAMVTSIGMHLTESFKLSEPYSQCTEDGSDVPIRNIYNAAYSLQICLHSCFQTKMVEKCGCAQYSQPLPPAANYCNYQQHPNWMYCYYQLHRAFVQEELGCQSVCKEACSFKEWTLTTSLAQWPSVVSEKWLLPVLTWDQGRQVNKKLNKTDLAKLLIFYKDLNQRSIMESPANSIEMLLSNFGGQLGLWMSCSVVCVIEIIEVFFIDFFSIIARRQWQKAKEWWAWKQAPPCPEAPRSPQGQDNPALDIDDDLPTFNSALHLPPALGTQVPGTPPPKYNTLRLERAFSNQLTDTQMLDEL
# Assay: Short circuit current (ISC) measurements in human bronchial epithelial cells, inhibition of the amiloride-sensitive ISC
# Type: cell-based
# Conditions: air-liquid interface culture, Ussing chamber, compound added to the apical chamber
# Description: Compounds of formula (I) and their pharmaceutically acceptable salts, hereinafter referred to alternatively as “agents of the invention”, are useful as pharmaceuticals. In particular, the compounds have good ENaC blocker activity and may be tested in the following assays.
# Human Bronchial Epithelial cells (HBECS) (Cambrex) were cultured under air-liquid interface conditions to provide a well differentiated mucociliary phenotype.
# HBECs were cultured using a modification of the method described by Gray and colleagues (Gray et al., 1996). […]
# Snapwell inserts were mounted in Vertical Diffusion Chambers (Costar) and were bathed with continuously gassed Ringer solution (5% CO2 in O2; pH 7.4) maintained at 37° C. containing (in mM): 120 NaCl, 25 NaHCO3, 3.3 KH2PO4, 0.8 K2HPO4, 1.2 CaCl2, 1.2 MgCl2, and 10 glucose. […] RT was measured by applying a 1- or 2-mV pulse at 30-s intervals and calculating RT by Ohm's law. Data were recorded using a PowerLab workstation (ADInstruments).
# Test compounds were prepared as a 10 mM stock solution in DMSO (95%). […] At the completion of the concentration-response experiment, amiloride (10 μM) was added into the apical chamber to enable the total amiloride-sensitive current to be measured. […]
# Results are expressed as the mean % inhibition of the amiloride-sensitive ISC. […] Cell inserts were typically run in duplicate and the IC50 calculated on the mean % inhibition data.
row,IC50,Compound
1,5.7 nM,N=C(NCC1CCC(CNC(=N)NC(=O)c2nc(Cl)c(N)nc2N)CC1)NC(=O)c1nc(Cl)c(N)nc1N (centres unmarked) [Example 2]
2,0.2 nM,N=C(NC(=O)c1nc(Cl)c(N)nc1N)N[C@H]1CC[C@H](NC(=N)NC(=O)c2nc(Cl)c(N)nc2N)CC1 [Example 5]
